Data: patent US9708314B2, “Heterocyclic amide compound” (NISSAN CHEMICAL INDUSTRIES, LTD., priority 2013, dated 2017)

Tests used:
Format in all cases: in vivo
Veronica persica = test: Test Example 4: herbicidal effect by application to foliage (diluvial soil, plastic box); details: Application herbicide amount 320 g/ha; foliage application
Outline: (§1)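 Seeds sown in sterilized diluvial soil, covered ~1.5 cm, grown 14 days in greenhouse at 25° C. to 30° C. Emulsion formulation diluted in water to set rate (g/ha) and sprayed onto stems and leaves. Effect scored visually 3 weeks later on 0–5 scale (5 = ≥90% herbicidal ratio, 0 = ≤5%).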

Galium spurium = test: as above; details: Application herbicide amount 320 g/ha; foliage application
Outline: as §1

Digitaria ciliaris = test: as above; details: Application herbicide amount 320 g/ha; foliage application
Outline: as §1

Alopecurus myosuroides = test: as above; details: Application herbicide amount 320 g/ha; foliage application
Outline: as §1

Setaria viridis = test: as above; details: Application herbicide amount 320 g/ha; foliage application
Outline: as §1

[1] = tested on: Echinochloa crus-galli var. crus-galli; test: as above; details: Application herbicide amount 320 g/ha; foliage application
Outline: as §1

Abutilon theophrasti = test: as above; details: Application herbicide amount 320 g/ha; foliage application
Outline: as §1

Apera spica-venti. = test: as above; details: Application herbicide amount 320 g/ha; foliage application
Outline: as §1

Amaranthus retroflexus = test: as above; details: Application herbicide amount 320 g/ha; foliage application
Outline: as §1

Chenopodium album = test: as above; details: Application herbicide amount 320 g/ha; foliage application
Outline: as §1

Lolium multiflorum Lam. = test: as above; details: Application herbicide amount 320 g/ha; foliage application
Outline: as §1

Avena fatua = test: as above; details: Application herbicide amount 320 g/ha; foliage application
Outline: as §1

Stellaria media = test: as above; details: Application herbicide amount 320 g/ha; foliage application
Outline: as §1

[2] = tested on: directly sowed Oryza sativa; test: Test Example 3: effect on crop by application to foliage (Wagner pot, water depth 0.1-0.5 cm); details: Nineteenth Table; application to foliage; application herbicide amount 320 g/ha
Outline: (§2)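 Plants are raised 14 days from seed in flooded-surface Wagner pots at 25–30 °C, sprayed on stems and leaves with diluted emulsion at a predetermined rate, and rated three weeks on using a 0–5 herbicidal-ratio scale (5 ≥90%).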

[3] = tested on: Echinochloa crus-galli var. crus-galli; test: Test Example 3: herbicidal effect by application to foliage (Wagner pot, water depth 0.1-0.5 cm); details: Nineteenth Table; application to foliage; application herbicide amount 320 g/ha
Outline: as §2

Cyperus difformis = test: as above; details: Nineteenth Table; application to foliage; application herbicide amount 320 g/ha
Outline: as §2

Leptochloa chinensis = test: as above; details: Nineteenth Table; application to foliage; application herbicide amount 320 g/ha
Outline: as §2

Zea mays = test: Test Example 4: effect on crop by application to foliage (diluvial soil, plastic box); details: Application herbicide amount 320 g/ha; foliage application
Outline: as §1

Glycine max = test: as above; details: Application herbicide amount 320 g/ha; foliage application
Outline: as §1

Brassica campestris L. = test: as above; details: Application herbicide amount 320 g/ha; foliage application
Outline: as §1

[4] = tested on: directly sowed Oryza sativa; test: as above; details: Application herbicide amount 320 g/ha; foliage application
Outline: as §1

Triticum aestivum = test: as above; details: Application herbicide amount 320 g/ha; foliage application
Outline: as §1

[5] = tested on: Beta vulgaris ssp. vulgaris; test: as above; details: Application herbicide amount 320 g/ha; foliage application
Outline: as §1

Row | SMILES | R (Veronica persica) herbicidal effect grade (Veronica persica) | Q (Galium spurium) herbicidal effect grade (Galium spurium) | F (Digitaria ciliaris) herbicidal effect grade (Digitaria ciliaris) | J (Alopecurus myosuroides) herbicidal effect grade (Alopecurus myosuroides) | G (Setaria viridis) herbicidal effect grade (Setaria viridis) | H (Echinochloa crus-galli var. crus-galli) herbicidal effect grade [1] | M (Abutilon theophrasti) herbicidal effect grade (Abutilon theophrasti) | L (Apera spica-venti.) herbicidal effect grade (Apera spica-venti.) | N (Amaranthus retroflexus) herbicidal effect grade (Amaranthus retroflexus) | O (Chenopodium album) herbicidal effect grade (Chenopodium album) | K (Lolium multiflorum Lam.) herbicidal effect grade (Lolium multiflorum Lam.) | I (Avena fatua) herbicidal effect grade (Avena fatua) | P (Stellaria media) herbicidal effect grade (Stellaria media) | b (effect on crop grade) [2] | H (herbicidal effect grade) [3] | E (herbicidal effect grade) (Cyperus difformis) | D (herbicidal effect grade) (Leptochloa chinensis) | c (Zea mays) effect on crop grade (Zea mays) | d (Glycine max) effect on crop grade (Glycine max) | g (Brassica campestris L.) effect on crop grade (Brassica campestris L.) | other results
1 | Cc1nnc(NC(=O)c2ccc(C(F)(F)F)n3c(SCC4CC4)nnc23)o1 [1-115] | 4 (Herbicidal ratio of 70% or more and less than 90%) | 3 (Herbicidal ratio of 40% or more and less than 70%) | 5 (Herbicidal ratio of 90% or more (almost completely withered)) | 2 (Herbicidal ratio of 20% or more and less than 40%) | 5 (Herbicidal ratio of 90% or more (almost completely withered)) | 5 (Herbicidal ratio of 90% or more (almost completely withered)) | 3 (Herbicidal ratio of 40% or more and less than 70%) | 2 (Herbicidal ratio of 20% or more and less than 40%) | 4 (Herbicidal ratio of 70% or more and less than 90%) | 5 (Herbicidal ratio of 90% or more (almost completely withered)) | 1 (Herbicidal ratio of 5% or more and less than 20%) | 2 (Herbicidal ratio of 20% or more and less than 40%) | 4 (Herbicidal ratio of 70% or more and less than 90%) | 0 (Herbicidal ratio of 5% or less (almost no effect)) | 5 (Herbicidal ratio of 90% or more (almost completely withered)) | 4 (Herbicidal ratio of 70% or more and less than 90%) | 4 (Herbicidal ratio of 70% or more and less than 90%) | 0 (Herbicidal ratio of 5% or less (almost no effect)) | 2 (Herbicidal ratio of 20% or more and less than 40%) | 1 (Herbicidal ratio of 5% or more and less than 20%) | b (directly sowed Oryza sativa) effect on crop grade [4]: 0 (Herbicidal ratio of 5% or less (almost no effect)); e (Triticum aestivum) effect on crop grade (Triticum aestivum): 2 (Herbicidal ratio of 20% or more and less than 40%); f (Beta vulgaris ssp. vulgaris) effect on crop grade [5]: 5 (Herbicidal ratio of 90% or more (almost completely withered))
2 | Cc1nnc(NC(=O)c2ccc(C(F)(F)F)n3c(SCC4CCCO4)nnc23)o1 (centres unmarked) [1-116] | 4 (Herbicidal ratio of 70% or more and less than 90%) | 3 (Herbicidal ratio of 40% or more and less than 70%) | 5 (Herbicidal ratio of 90% or more (almost completely withered)) | 1 (Herbicidal ratio of 5% or more and less than 20%) | 4 (Herbicidal ratio of 70% or more and less than 90%) | 5 (Herbicidal ratio of 90% or more (almost completely withered)) | 4 (Herbicidal ratio of 70% or more and less than 90%) | 1 (Herbicidal ratio of 5% or more and less than 20%) | 4 (Herbicidal ratio of 70% or more and less than 90%) | 5 (Herbicidal ratio of 90% or more (almost completely withered)) | 1 (Herbicidal ratio of 5% or more and less than 20%) | 3 (Herbicidal ratio of 40% or more and less than 70%) | 5 (Herbicidal ratio of 90% or more (almost completely withered)) | 0 (Herbicidal ratio of 5% or less (almost no effect)) | 4 (Herbicidal ratio of 70% or more and less than 90%) | 0 (Herbicidal ratio of 5% or less (almost no effect)) | 4 (Herbicidal ratio of 70% or more and less than 90%) | 0 (Herbicidal ratio of 5% or less (almost no effect)) | 3 (Herbicidal ratio of 40% or more and less than 70%) | 4 (Herbicidal ratio of 70% or more and less than 90%) | b (directly sowed Oryza sativa) effect on crop grade [4]: 0 (Herbicidal ratio of 5% or less (almost no effect)); e (Triticum aestivum) effect on crop grade (Triticum aestivum): 2 (Herbicidal ratio of 20% or more and less than 40%); f (Beta vulgaris ssp. vulgaris) effect on crop grade [5]: 5 (Herbicidal ratio of 90% or more (almost completely withered))
3 | Cc1nnc(NC(=O)c2ccc(C(F)(F)F)n3c(N4CCSCC4)nnc23)o1 [1-118] | 5 (Herbicidal ratio of 90% or more (almost completely withered)) | 4 (Herbicidal ratio of 70% or more and less than 90%) | 5 (Herbicidal ratio of 90% or more (almost completely withered)) | 1 (Herbicidal ratio of 5% or more and less than 20%) | 5 (Herbicidal ratio of 90% or more (almost completely withered)) | 5 (Herbicidal ratio of 90% or more (almost completely withered)) | 4 (Herbicidal ratio of 70% or more and less than 90%) | 3 (Herbicidal ratio of 40% or more and less than 70%) | 4 (Herbicidal ratio of 70% or more and less than 90%) | 5 (Herbicidal ratio of 90% or more (almost completely withered)) | 1 (Herbicidal ratio of 5% or more and less than 20%) | 3 (Herbicidal ratio of 40% or more and less than 70%) | 4 (Herbicidal ratio of 70% or more and less than 90%) | 3 (Herbicidal ratio of 40% or more and less than 70%) | 5 (Herbicidal ratio of 90% or more (almost completely withered)) | 3 (Herbicidal ratio of 40% or more and less than 70%) | 5 (Herbicidal ratio of 90% or more (almost completely withered)) | 0 (Herbicidal ratio of 5% or less (almost no effect)) | 4 (Herbicidal ratio of 70% or more and less than 90%) | 5 (Herbicidal ratio of 90% or more (almost completely withered)) | b (directly sowed Oryza sativa) effect on crop grade [4]: 4 (Herbicidal ratio of 70% or more and less than 90%); e (Triticum aestivum) effect on crop grade (Triticum aestivum): 1 (Herbicidal ratio of 5% or more and less than 20%); f (Beta vulgaris ssp. vulgaris) effect on crop grade [5]: 5 (Herbicidal ratio of 90% or more (almost completely withered))
4 | Cc1nnc(NC(=O)c2ccc(C(F)(F)F)n3c(N4CC[S+]([O-])CC4)nnc23)o1 [1-119] | 5 (Herbicidal ratio of 90% or more (almost completely withered)) | 4 (Herbicidal ratio of 70% or more and less than 90%) | 5 (Herbicidal ratio of 90% or more (almost completely withered)) | 3 (Herbicidal ratio of 40% or more and less than 70%) | 4 (Herbicidal ratio of 70% or more and less than 90%) | 5 (Herbicidal ratio of 90% or more (almost completely withered)) | 5 (Herbicidal ratio of 90% or more (almost completely withered)) | 3 (Herbicidal ratio of 40% or more and less than 70%) | 5 (Herbicidal ratio of 90% or more (almost completely withered)) | 5 (Herbicidal ratio of 90% or more (almost completely withered)) | 2 (Herbicidal ratio of 20% or more and less than 40%) | 3 (Herbicidal ratio of 40% or more and less than 70%) | 4 (Herbicidal ratio of 70% or more and less than 90%) | 3 (Herbicidal ratio of 40% or more and less than 70%) | 5 (Herbicidal ratio of 90% or more (almost completely withered)) | 2 (Herbicidal ratio of 20% or more and less than 40%) | 5 (Herbicidal ratio of 90% or more (almost completely withered)) | 2 (Herbicidal ratio of 20% or more and less than 40%) | 4 (Herbicidal ratio of 70% or more and less than 90%) | 5 (Herbicidal ratio of 90% or more (almost completely withered)) | b (directly sowed Oryza sativa) effect on crop grade [4]: 3 (Herbicidal ratio of 40% or more and less than 70%); e (Triticum aestivum) effect on crop grade (Triticum aestivum): 3 (Herbicidal ratio of 40% or more and less than 70%); f (Beta vulgaris ssp. vulgaris) effect on crop grade [5]: 5 (Herbicidal ratio of 90% or more (almost completely withered))
